In brackets after ≈: the same amount, converted by molar mass. Like-named read-outs stand apart in the source and are kept apart here.
Legend:
HepG2 cells = experiment: Drug toxicity to HepG2 cells (MTT); type: cell-based; conditions: for HepG2 TC50: HepG2 cells, 48 hours incubation, MTT
[1] = Human liver microsomal Clint; type: in vitro ADME; conditions: human liver microsomes, intrinsic clearance; for microsomal CLint: read-out: HLM Clint
adult S. mansoni = experiment: Phenotypic screen of adult S. mansoni worms, severity scores and descriptors; type: cell-based, Schistosoma mansoni; conditions: for Descriptors (10 µM) 1 h / Severity Scores (10 μM) 1 h / Descriptors (10 µM) 5 h / Severity Scores (10 μM) 5 h / Descriptors (10 µM) 24 h / Severity Scores (10 μM) 24 h / Descriptors (10 µM) 48 h / Severity Scores (10 μM) 48 h: adult S. mansoni; for Descriptors (10 µM) 1 h / Descriptors (10 µM) 5 h / Descriptors (10 µM) 24 h / Descriptors (10 µM) 48 h: phenotypic descriptors; for Severity Scores (10 μM) 1 h / Severity Scores (10 μM) 5 h / Severity Scores (10 μM) 24 h / Severity Scores (10 μM) 48 h: scale 0 (no activity) to 4 (maximal activity); for bioactivity against adult S. mansoni: adult schistosomes; for Severity Scores (10 μM) 1 h / Severity Scores (10 μM) 5 h / Severity Scores (10 μM) 24 h / Severity Scores (10 μM) 48 h / bioactivity against adult S. mansoni: 10 μM
How it was run: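 Adult S. mansoni (NMRI isolate, ≥42 days old) were co-incubated with compounds and changes in motility, density, shape and adherence recorded visually over time and concentration. Descriptors converted to severity scores from 0 (no activity) to 4 (maximal).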

[2] = Log D7.4 shake-flask octanol-water; type: physicochemical; conditions: pH 7.4
[3] = Human plasma protein binding (equilibrium dialysis); type: in vitro ADME; conditions: for human PPB (plasma protein binding): 10 µM, 37 °C; for fraction unbound at 10 µM: pH 7.4, 37 °C, read-out: human PPB (plasma protein binding) (converted)
[4] = Aqueous pH 7.4 solubility; type: physicochemical; conditions: phosphate buffer pH 7.4, 25 °C, 20-24 h, read-out: aq sol (aqueous solubility)
Rat hepatocyte Clint = type: in vitro ADME; conditions: rat hepatocytes, intrinsic clearance; for hepatocyte CLint: read-out: RH CLint
[5] = aqueous buffer, thermodynamic from solid

O=S(=O)(c1ccc(-c2ccc3nccc(Nc4ccncn4)c3c2)cc1)N1CCOCC1 [S3a]
HepG2 TC50 (HepG2 cells): > 34 µM
HLM Clint [1]: 210 μL/min/mg protein
Descriptors (10 µM) 1 h (adult S. mansoni): none
Severity Scores (10 μM) 1 h (adult S. mansoni): 0
Descriptors (10 µM) 5 h (adult S. mansoni): none
Severity Scores (10 μM) 5 h (adult S. mansoni): 0
Descriptors (10 µM) 24 h (adult S. mansoni): none
Severity Scores (10 μM) 24 h (adult S. mansoni): 0
Descriptors (10 µM) 48 h (adult S. mansoni): none
Severity Scores (10 μM) 48 h (adult S. mansoni): 0
LogD 7.4 [2]: 3.3
human PPB (plasma protein binding) [3]: 96%
solubility [4]: 1.4 µM (≈ 0.627 µg/mL)
RH CLint (Rat hepatocyte Clint): 32 µL/min/10^6 cells

Cc1cnc(Nc2ccnc3cc(-c4cnc(N5CCN(C)CC5)nc4)ccc23)cn1 [5a]
increase in toxicity against HepG2 cells compared with 3 (HepG2 cells; relative to 3): greater than 1.9 fold
microsomal CLint [1]: 240 µL/min/mg
Severity Scores (10 μM) 1 h (adult S. mansoni): 1
Severity Scores (10 μM) 5 h (adult S. mansoni): 4
Severity Scores (10 μM) 24 h (adult S. mansoni): 4
Severity Scores (10 μM) 48 h (adult S. mansoni): 4
bioactivity against adult S. mansoni (adult S. mansoni): severe phenotypic response after just 5 h
logD [2]: 3.6
fraction unbound at 10 µM [3]: 0.07
solubility [4, 5]: 13 µM (≈ 5.36 µg/mL)
hepatocyte CLint (Rat hepatocyte Clint): 150 µL/min/1e6 cells

CN1CCCN(c2ncc(-c3ccc4nccc(Nc5ccncn5)c4c3)cn2)CC1 [S3j]
HepG2 TC50 (HepG2 cells): > 37 µM
HLM Clint [1]: 87 μL/min/mg protein
Descriptors (10 µM) 1 h (adult S. mansoni): none
Severity Scores (10 μM) 1 h (adult S. mansoni): 0
Descriptors (10 µM) 5 h (adult S. mansoni): none
Severity Scores (10 μM) 5 h (adult S. mansoni): 0
Descriptors (10 µM) 24 h (adult S. mansoni): none
Severity Scores (10 μM) 24 h (adult S. mansoni): 0
LogD 7.4 [2]: 2.2
human PPB (plasma protein binding) [3]: 61%
solubility [4]: 910 µM (≈ 375 µg/mL)
RH CLint (Rat hepatocyte Clint): 19 µL/min/10^6 cells

O=S(=O)(c1ccc(-c2ccc3nccc(Nc4ncccn4)c3c2)cc1)N1CCOCC1 [S3b]
HepG2 TC50 (HepG2 cells): > 34 µM
microsomal CLint [1]: 270 µL/min/mg
Descriptors (10 µM) 1 h (adult S. mansoni): S, on sides
Severity Scores (10 μM) 1 h (adult S. mansoni): 2
Descriptors (10 µM) 5 h (adult S. mansoni): S, on sides
Severity Scores (10 μM) 5 h (adult S. mansoni): 2
Severity Scores (10 μM) 24 h (adult S. mansoni): 3
Severity Scores (10 μM) 48 h (adult S. mansoni): 3
bioactivity against adult S. mansoni (adult S. mansoni): moderate activity after 1 h
logD [2]: 3.7
fraction unbound at 10 µM [3]: 0.01
solubility [4, 5]: 34 µM (≈ 15.2 µg/mL)
hepatocyte CLint (Rat hepatocyte Clint): 85 µL/min/1e6 cells

CS(=O)(=O)N1CCN(c2ncc(-c3ccc4c(Nc5cnccn5)ccnc4c3)cn2)CC1 [S2a]
HepG2 TC50 (HepG2 cells): > 33 µM
HLM Clint [1]: 44 μL/min/mg protein
Descriptors (10 µM) 1 h (adult S. mansoni): none
Severity Scores (10 μM) 1 h (adult S. mansoni): 0
Descriptors (10 µM) 5 h (adult S. mansoni): none
Severity Scores (10 μM) 5 h (adult S. mansoni): 0
Descriptors (10 µM) 24 h (adult S. mansoni): none
Severity Scores (10 μM) 24 h (adult S. mansoni): 0
Descriptors (10 µM) 48 h (adult S. mansoni): none
Severity Scores (10 μM) 48 h (adult S. mansoni): 0
LogD 7.4 [2]: 3.1
human PPB (plasma protein binding) [3]: 96%
solubility [4]: 0.06 µM (≈ 0.0278 µg/mL)
RH CLint (Rat hepatocyte Clint): 28 µL/min/10^6 cells

c1cnc(Nc2ccnc3cc(-c4cnc(N5CCOCC5)nc4)ccc23)cn1 [S2d]
HepG2 TC50 (HepG2 cells): 39 µM
HLM Clint [1]: > 300 μL/min/mg protein
Descriptors (10 µM) 1 h (adult S. mansoni): Shrunk, S
Severity Scores (10 μM) 1 h (adult S. mansoni): 2
Severity Scores (10 μM) 5 h (adult S. mansoni): 1
Descriptors (10 µM) 24 h (adult S. mansoni): none
Severity Scores (10 μM) 24 h (adult S. mansoni): 0
Descriptors (10 µM) 48 h (adult S. mansoni): none
Severity Scores (10 μM) 48 h (adult S. mansoni): 0
LogD 7.4 [2]: 3.7
human PPB (plasma protein binding) [3]: 96%
solubility [4]: 0.7 µM (≈ 0.27 µg/mL)
RH CLint (Rat hepatocyte Clint): 93 µL/min/10^6 cells

O=S(=O)(c1ccc(-c2ccc3nccc(NCCN4CCCC4)c3c2)cc1)N1CCOCC1 [S3e]
HepG2 TC50 (HepG2 cells): 9.2 µM
HLM Clint [1]: 28 μL/min/mg protein
Descriptors (10 µM) 1 h (adult S. mansoni): none
Severity Scores (10 μM) 1 h (adult S. mansoni): 0
Descriptors (10 µM) 5 h (adult S. mansoni): none
Severity Scores (10 μM) 5 h (adult S. mansoni): 0
Severity Scores (10 μM) 24 h (adult S. mansoni): 1
Severity Scores (10 μM) 48 h (adult S. mansoni): 3
LogD 7.4 [2]: 2.2
human PPB (plasma protein binding) [3]: 73%
solubility [4]: 870 µM (≈ 406 µg/mL)
RH CLint (Rat hepatocyte Clint): 10 µL/min/10^6 cells

O=S(=O)(c1ccc(-c2ccc3nccc(NCCC4CCOCC4)c3c2)cc1)N1CCOCC1 [S3h]
HepG2 TC50 (HepG2 cells): 21 µM
HLM Clint [1]: 110 μL/min/mg protein
Descriptors (10 µM) 1 h (adult S. mansoni): none
Severity Scores (10 μM) 1 h (adult S. mansoni): 0
Descriptors (10 µM) 5 h (adult S. mansoni): none
Severity Scores (10 μM) 5 h (adult S. mansoni): 0
Descriptors (10 µM) 24 h (adult S. mansoni): none
Severity Scores (10 μM) 24 h (adult S. mansoni): 0
Descriptors (10 µM) 48 h (adult S. mansoni): none
Severity Scores (10 μM) 48 h (adult S. mansoni): 0
LogD 7.4 [2]: 2.8
human PPB (plasma protein binding) [3]: 82%
solubility [4]: 200 µM (≈ 96.3 µg/mL)
RH CLint (Rat hepatocyte Clint): 100 µL/min/10^6 cells

CN1CCCN(c2ncc(-c3ccc4nccc(Nc5cnccn5)c4c3)cn2)CC1 [S3i]
HepG2 TC50 (HepG2 cells): > 37 µM
HLM Clint [1]: 48 μL/min/mg protein
Descriptors (10 µM) 1 h (adult S. mansoni): none
Severity Scores (10 μM) 1 h (adult S. mansoni): 0
Descriptors (10 µM) 5 h (adult S. mansoni): none
Severity Scores (10 μM) 5 h (adult S. mansoni): 0
Descriptors (10 µM) 24 h (adult S. mansoni): none
Severity Scores (10 μM) 24 h (adult S. mansoni): 0
LogD 7.4 [2]: 2.5
human PPB (plasma protein binding) [3]: 81%
solubility [4]: 990 µM (≈ 408 µg/mL)
RH CLint (Rat hepatocyte Clint): 12 µL/min/10^6 cells
